Measurements published in patent US20090239881A1 (Boehringer Ingelheim International GmbH, priority 2006, published 2009).

Experiments:
[1] = after ingestion; cited from earlier work
[2] = system: Sexual Disorders and/or Dysfunctions; test: Studies of female patients suffering from Sexual Disorders; type: in vivo, human
[3] = known use of flibanserin; cited from earlier work
5-HT1A receptor = target: T1, 5-HT1A receptor (Homo sapiens, UniProt P08908); settings: cited from earlier work
T1 sequence (P08908 1-422): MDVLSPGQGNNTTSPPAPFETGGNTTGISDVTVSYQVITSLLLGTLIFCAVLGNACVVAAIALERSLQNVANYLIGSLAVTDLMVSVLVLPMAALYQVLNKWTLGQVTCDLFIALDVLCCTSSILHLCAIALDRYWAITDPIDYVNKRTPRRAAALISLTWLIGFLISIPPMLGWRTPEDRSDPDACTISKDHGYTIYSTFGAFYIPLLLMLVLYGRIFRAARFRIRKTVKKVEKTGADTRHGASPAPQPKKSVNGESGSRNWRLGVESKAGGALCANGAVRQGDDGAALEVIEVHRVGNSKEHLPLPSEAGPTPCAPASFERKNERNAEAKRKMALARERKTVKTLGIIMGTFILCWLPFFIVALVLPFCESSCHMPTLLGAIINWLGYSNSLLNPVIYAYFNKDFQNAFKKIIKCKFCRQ

5-HT2-receptor = settings: cited from earlier work

SMILES	physiological half-life [1]	effect on Sexual Disorders and/or Dysfunctions [2]	side effects (sedation) [3]	affinity for the 5-HT1A receptor (5-HT1A receptor)	affinity for the 5-HT2-receptor (5-HT2-receptor)
Cn1c(=O)c2c(ncn2C)n(C)c1=O [caffeine]	three and a half to six	–	–	–	–
O=c1[nH]c2ccccc2n1CCN1CCN(c2cccc(C(F)(F)F)c2)CC1 [flibanserin, 1-[2-(4-(3-trifluoromethyl-phenyl)piperazin-1-yl)ethyl]-2,3-dihydro-1H-benzimidazol-2-one]	–	positive effect	sometimes mild or moderate symptoms such as sedation may occur	shows affinity	shows affinity
